# Measured values published in ChEMBL document CHEMBL1156832, “Cationic N-confused porphyrin derivative as a better molecule scaffold for G-quadruplex recognition” (Bioorg Med Chem, 2010).
# Activity calls are given as the source filed them. The calls are words filed in the database; no cut-off is given here.
# Key:
# Nucleic Acid [1] = assay: Induction of G-quadruplex stabilization in G4C oligonucleotide in pH 7.4 10 mM Tris-HCl, 1 mM EDTA buffer by CD spectroscopy; format: nucleic-acid assay
# Nucleic Acid [2] = assay: Induction of G-quadruplex stabilization in G4C oligonucleotide assessed as change in DNA melting temperature at [compound/G4C ratio = 1] in pH 7.4 10 mM Tris-HCl, 1 mM EDTA buffer by CD spectroscopy; format: nucleic-acid assay
# Nucleic Acid [3] = assay: Induction of G-quadruplex stabilization in G4C oligonucleotide assessed as change in DNA melting temperature at [compound/G4C ratio = 2] in pH 7.4 10 mM Tris-HCl, 1 mM EDTA buffer by CD spectroscopy; format: nucleic-acid assay
# Nucleic Acid [4] = assay: Induction of G-quadruplex stabilization in G4C oligonucleotide assessed as change in DNA melting temperature at [compound/G4C ratio = 3] in pH 7.4 10 mM Tris-HCl, 1 mM EDTA buffer by CD spectroscopy; format: nucleic-acid assay
# Nucleic Acid [5] = assay: Induction of G-quadruplex stabilization in G4C oligonucleotide assessed as change in DNA melting temperature at [compound/G4C ratio = 4] in pH 7.4 10 mM Tris-HCl, 1 mM EDTA buffer by CD spectroscopy; format: nucleic-acid assay
# Nucleic Acid [6] = assay: Induction of G-quadruplex stabilization in G4C oligonucleotide assessed as change in DNA melting temperature at [compound/G4C ratio = 5] in pH 7.4 10 mM Tris-HCl, 1 mM EDTA buffer by CD spectroscopy; format: nucleic-acid assay
# Nucleic Acid [7] = assay: Binding affinity to human bcl2 promoter G-quadruplex sequence by surface plasmon resonance spectroscopy; format: nucleic-acid assay
# Nucleic Acid [8] = assay: Binding affinity to human c-myc promoter G-quadruplex sequence by surface plasmon resonance spectroscopy; format: nucleic-acid assay
# Nucleic Acid [9] = assay: Binding affinity to human telomeric G-quadruplex sequence by surface plasmon resonance spectroscopy; format: nucleic-acid assay
# Nucleic Acid [10] = assay: Binding affinity to dsDNA by surface plasmon resonance spectroscopy; format: nucleic-acid assay
# Nucleic Acid [11] = assay: Selectivity for human bcl2 promoter G-quadruplex sequence over double stranded DNA by surface plasmon resonance spectroscopy; format: nucleic-acid assay
# Nucleic Acid [12] = assay: Selectivity for human c-myc promoter G-quadruplex sequence over double stranded DNA by surface plasmon resonance spectroscopy; format: nucleic-acid assay
# Nucleic Acid [13] = assay: Selectivity for human telomeric G-quadruplex sequence over double stranded DNA by surface plasmon resonance spectroscopy; format: nucleic-acid assay
# Nucleic Acid [14] = assay: Induction of structural transition from antiparallel to the mixed-type hybrid G-quadruplex structure in human telomeric sequence (T2AG3)4 by CD spectroscopy; format: nucleic-acid assay
# Nucleic Acid [15] = assay: Binding affinity to F21T G-quadruplex DNA at 2.5 uM in presence of competitor dsDNA by competitive FRET melting assay; format: nucleic-acid assay
# Nucleic Acid [16] = assay: Induction of G-quadruplex stabilization in HT4 oligonucleotide assessed as inhibition of DNA synthesis by Taq DNA polymerase stop assay
SMILES,Activity (Nucleic Acid [1]),ΔTm (Nucleic Acid [2]),ΔTm (Nucleic Acid [3]),ΔTm (Nucleic Acid [4]),ΔTm (Nucleic Acid [5]),ΔTm (Nucleic Acid [6]),KA (Nucleic Acid [7]),KA (Nucleic Acid [8]),KA (Nucleic Acid [9]),KA (Nucleic Acid [10]),Selectivity ratio (Nucleic Acid [11]),Selectivity ratio (Nucleic Acid [12]),Selectivity ratio (Nucleic Acid [13]),Activity (Nucleic Acid [14]),Activity (Nucleic Acid [15]),Activity (Nucleic Acid [16])
C1=Cc2nc1c(-c1ccc(C[n+]3ccccc3)cc1)c1nc(c(-c3ccc(C[n+]4ccccc4)cc3)c3ccc([nH]3)c(-c3ccc(C[n+]4ccccc4)cc3)c3ccc([nH]3)c2-c2ccc(C[n+]3ccccc3)cc2)C=C1,Active,2.2 °C,3.3 °C,5 °C,6.5 °C,7.6 °C,1.74 ×10⁷ /M,5.82 ×10⁷ /M,2.37 ×10⁷ /M,6.85 ×10⁵ /M,25,85,34,,,
C[n+]1ccc(-c2c3nc(c(-c4cc[n+](C)cc4)c4ccc([nH]4)c(-c4cc[n+](C)cc4)c4ccc([nH]4)c(-c4cc[n+](C)cc4)c4nc2C=C4)C=C3)cc1,,4.2 °C,7.5 °C,9.6 °C,11.2 °C,10 °C,3.09 ×10⁷ /M,1.01 ×10⁸ /M,4.65 ×10⁷ /M,3.62 ×10⁶ /M,9,28,13,,,
C1=C/C2=C(\c3ccc(C[n+]4ccccc4)cc3)c3c[nH]c(c3)/C(c3ccc(C[n+]4ccccc4)cc3)=C3/C=CC(=N3)/C(c3ccc(C[n+]4ccccc4)cc3)=c3/cc/c([nH]3)=C(\c3ccc(C[n+]4ccccc4)cc3)C1=N2,,3.8 °C,6.6 °C,8.3 °C,9.2 °C,9.3 °C,1.42 ×10⁷ /M,7.54 ×10⁶ /M,5.32 ×10⁶ /M,1.32 ×10⁵ /M,108,57,40,Active,Active,Dose-dependent effect
